Data taken from patent US5698411A, “Method for determining activity of enzymes in metabolically active whole cells” (priority 1995, dated 1997).
Where a name gives a salt, the structure may show the parent alone. Numbered stars: 1 amine (or outer) side, 2 acyl side, 3 side chain; on linkers, the order of the positions; unused ones are H or OH. Bridge positions count the residues as written; N and C are the ends. Peptide text beside a SMILES is read from it. I, II: the chains in the order shown. Rhodamine110 = O=C1OC2(c3ccc(N[*:1])cc3Oc3cc(N[*:2])ccc32)c2ccccc21

Legend:
Assay type in all cases: cell-based, human
monocytes = assay: aberrant enzyme activities in febrile children, monocytes (Table 7)
lymphocytes = assay: aberrant enzyme activities in febrile children, lymphocytes (Table 7)
granulocytes = assay: aberrant enzyme activities in febrile children, granulocytes (Table 7)
[1] = P88 Enteritis, listed as Z-Gly/Pro

Compound | aberrant enzyme activity, MONOS (monocytes; P92 Adenitis) | aberrant enzyme activity, MONOS (monocytes; P97 Pyelonephritis) | aberrant enzyme activity, MONOS (monocytes; P103 Viral Syndrome) | aberrant enzyme activity, LYMPHS (lymphocytes; P92 Adenitis) | aberrant enzyme activity, LYMPHS (lymphocytes; P97 Pyelonephritis) | aberrant enzyme activity, LYMPHS (lymphocytes; P103 Viral Syndrome) | aberrant enzyme activity, GRANS (granulocytes; P92 Adenitis) | aberrant enzyme activity, GRANS (granulocytes; P97 Pyelonephritis) | aberrant enzyme activity, GRANS (granulocytes; P103 Viral Syndrome) | aberrant enzyme activity, MONOS (monocytes; P89 Viral Stomatitis) | aberrant enzyme activity, LYMPHS (lymphocytes; P88 Enteritis) | aberrant enzyme activity, LYMPHS (lymphocytes; P89 Viral Stomatitis) | aberrant enzyme activity, LYMPHS (lymphocytes; P102 UTI) | aberrant enzyme activity, GRANS (granulocytes; P88 Enteritis) | aberrant enzyme activity, GRANS (granulocytes; P89 Viral Stomatitis) | aberrant enzyme activity, GRANS (granulocytes; P102 UTI) | aberrant enzyme activity, MONOS (monocytes; P96 Viral Syndrome) | aberrant enzyme activity, MONOS (monocytes; P99 Viral Syndrome) | aberrant enzyme activity, MONOS (monocytes; P102 UTI) | aberrant enzyme activity, GRANS (granulocytes; P96 Viral Syndrome) | also measured
CC(C)C[C@H](NC(=O)CNC(=O)[C@@H](N)CC(C)C)C(=O)NCC(=O)Nc1ccc2c(c1)Oc1cc(NC(=O)CNC(=O)[C@H](CC(C)C)NC(=O)CNC(=O)[C@@H](N)CC(C)C)ccc1C21OC(=O)c2ccccc21 [LGLG, (H-L-Leu--Gly--Leu--Gly)2 Rho 110 .2TFA] (I: H-LGLG / II: H-LGLG; linker I:C-II:C via Rhodamine110) | .smallcircle. | .smallcircle. | .smallcircle. | .smallcircle. | .smallcircle. | .smallcircle. | .smallcircle. | .smallcircle. | .smallcircle. |  |  |  |  |  |  |  |  |  |  |  | 
CC(C)C[C@H](NC(=O)[C@@H]1CCCN1C(=O)CN)C(=O)NCC(=O)N1CCC[C@H]1C(=O)Nc1ccc2c(c1)Oc1cc(NC(=O)[C@@H]3CCCN3C(=O)CNC(=O)[C@H](CC(C)C)NC(=O)[C@@H]3CCCN3C(=O)CN)ccc1C21OC(=O)c2ccccc21 [GPLGP, (H-Gly--Pro--Leu--Gly--Pro)2 Rho 110 .2TFA] (I: H-GPLGP / II: H-GPLGP; linker I:C-II:C via Rhodamine110) |  |  |  |  |  |  |  |  |  | .smallcircle. | .smallcircle. | .smallcircle. | .smallcircle. | .smallcircle. | .smallcircle. | .smallcircle. |  |  |  |  | 
N=C(N)NCCC[C@H](N)C(=O)Nc1ccc2c(c1)Oc1cc(NC(=O)[C@@H](N)CCCNC(=N)N)ccc1C21OC(=O)c2ccccc21 (stereo partly drawn) [ARG, (H-L-Arg)2 Rho 110 .4TFA] |  | .smallcircle. |  | .smallcircle. |  | .smallcircle. |  |  |  |  |  |  | .smallcircle. |  |  | .smallcircle. | .smallcircle. | .smallcircle. | .smallcircle. | .smallcircle. | aberrant enzyme activity, MONOS (monocytes; P95 Viral Syndrome): .smallcircle.; aberrant enzyme activity, LYMPHS (lymphocytes; P95 Viral Syndrome): .smallcircle.; aberrant enzyme activity, LYMPHS (lymphocytes; P97 Pyelonephritis, listed as Arg-TFA): .smallcircle.; aberrant enzyme activity, LYMPHS (lymphocytes; P99 Viral Syndrome): .smallcircle.; aberrant enzyme activity, GRANS (granulocytes; P95 Viral Syndrome): .smallcircle.
O=C(NCC(=O)N1CCC[C@H]1C(=O)Nc1ccc2c(c1)Oc1cc(NC(=O)[C@@H]3CCCN3C(=O)CNC(=O)OCc3ccccc3)ccc1C21OC(=O)c2ccccc21)OCc1ccccc1 [Z-GP, (carbobenzyloxycarbonyl-Gly-Pro)2 Rho 110] | - (>0.25 Decrease over normal range) | .smallcircle. | .smallcircle. | - (>0.25 Decrease over normal range) |  | - (>0.25 Decrease over normal range) | - (>0.25 Decrease over normal range) | .smallcircle. | .smallcircle. | .smallcircle. |  | - (>0.25 Decrease over normal range) |  |  |  |  | .smallcircle. | .smallcircle. | .smallcircle. | .smallcircle. | aberrant enzyme activity, MONOS (monocytes; [1]): .smallcircle.; aberrant enzyme activity, MONOS (monocytes; P95 Viral Syndrome): .smallcircle.; aberrant enzyme activity, MONOS (monocytes; P101 Fever -- Unknown Origin): - (>0.25 Decrease over normal range); aberrant enzyme activity, LYMPHS (lymphocytes; [1]): .smallcircle.; aberrant enzyme activity, LYMPHS (lymphocytes; P95 Viral Syndrome): - (>0.25 Decrease over normal range); aberrant enzyme activity, LYMPHS (lymphocytes; P96 Viral Syndrome): - (>0.25 Decrease over normal range); aberrant enzyme activity, LYMPHS (lymphocytes; P97 Pyelonephritis, listed as Z-Gly/Pro): .smallcircle.; aberrant enzyme activity, LYMPHS (lymphocytes; P101 Fever -- Unknown Origin): - (>0.25 Decrease over normal range); aberrant enzyme activity, GRANS (granulocytes; [1]): .smallcircle.; aberrant enzyme activity, GRANS (granulocytes; P95 Viral Syndrome): - (>0.25 Decrease over normal range); aberrant enzyme activity, GRANS (granulocytes; P99 Viral Syndrome): .smallcircle.
C[C@H](NC(=O)OCc1ccccc1)C(=O)N[C@@H](C)C(=O)Nc1ccc2c(c1)Oc1cc(NC(=O)[C@H](C)NC(=O)[C@H](C)NC(=O)OCc3ccccc3)ccc1C21OC(=O)c2ccccc21 [Z-AA, (Z-Ala--Ala)2 Rho 110] |  | .smallcircle. | .smallcircle. |  |  |  |  | .smallcircle. | .smallcircle. |  |  |  | .smallcircle. |  |  | .smallcircle. | .smallcircle. | .smallcircle. | .smallcircle. | .smallcircle. | aberrant enzyme activity, LYMPHS (lymphocytes; P99 Viral Syndrome): .smallcircle.; aberrant enzyme activity, GRANS (granulocytes; P99 Viral Syndrome): .smallcircle.
O=C1OC2(c3ccc(OC4O[C@H](CO)[C@@H](O)[C@H](O)[C@H]4O)cc3Oc3cc(OC4O[C@H](CO)[C@@H](O)[C@H](O)[C@H]4O)ccc32)c2ccccc21 (stereo partly drawn) [DGLUC, (D-glucose)2 fluorescein] | - (>0.25 Decrease over normal range) |  | + (>0.25 Increase over normal range) | .smallcircle. |  | - (>0.25 Decrease over normal range) | + (>0.25 Increase over normal range) |  | + (>0.25 Increase over normal range) | .smallcircle. | .smallcircle. | .smallcircle. |  | .smallcircle. | + (>0.25 Increase over normal range) |  |  |  |  |  | aberrant enzyme activity, MONOS (monocytes; P88 Enteritis): - (>0.25 Decrease over normal range)
C[C@H](NC(=O)[C@@H](N)CCCCN)C(=O)Nc1ccc2c(c1)Oc1cc(NC(=O)[C@H](C)NC(=O)[C@@H](N)CCCCN)ccc1C21OC(=O)c2ccccc21 [KA, (Lys-Ala)2 Rho 110] | .smallcircle. | + (>0.25 Increase over normal range) | .smallcircle. | .smallcircle. | .smallcircle. | .smallcircle. | .smallcircle. | .smallcircle. | .smallcircle. | .smallcircle. | .smallcircle. | .smallcircle. | .smallcircle. | .smallcircle. | .smallcircle. | .smallcircle. | .smallcircle. | .smallcircle. | .smallcircle. | .smallcircle. | aberrant enzyme activity, MONOS (monocytes; P88 Enteritis): .smallcircle.; aberrant enzyme activity, MONOS (monocytes; P95 Viral Syndrome): .smallcircle.; aberrant enzyme activity, MONOS (monocytes; P101 Fever -- Unknown Origin): + (>0.25 Increase over normal range); aberrant enzyme activity, LYMPHS (lymphocytes; P95 Viral Syndrome): .smallcircle.; aberrant enzyme activity, LYMPHS (lymphocytes; P96 Viral Syndrome): .smallcircle.; aberrant enzyme activity, LYMPHS (lymphocytes; P99 Viral Syndrome): .smallcircle.; aberrant enzyme activity, GRANS (granulocytes; P95 Viral Syndrome): .smallcircle.; aberrant enzyme activity, GRANS (granulocytes; P99 Viral Syndrome): .smallcircle.; aberrant enzyme activity, GRANS (granulocytes; P101 Fever -- Unknown Origin): + (>0.25 Increase over normal range)
CC(C)C[C@H](NC(=O)[C@@H](N)CC(C)C)C(=O)N[C@@H](CCCNC(=N)N)C(=O)Nc1ccc2c(c1)Oc1cc(NC(=O)[C@H](CCCNC(=N)N)NC(=O)[C@H](CC(C)C)NC(=O)[C@@H](N)CC(C)C)ccc1C21OC(=O)c2ccccc21 (some centres unmarked) [LLR, (H-L Leu--Leu--Arg)2 Rho 110 .4TFA] | .smallcircle. | .smallcircle. |  | .smallcircle. | .smallcircle. | .smallcircle. | .smallcircle. | .smallcircle. | .smallcircle. |  |  |  |  |  |  |  |  |  |  |  | 
N[C@@H](CC(=O)O)C(=O)Nc1ccc2c(c1)Oc1cc(NC(=O)[C@@H](N)CC(=O)O)ccc1C21OC(=O)c2ccccc21 [ASP, (H-L-Asp)2 --Rho 110 .2TFA] | .smallcircle. | .smallcircle. | .smallcircle. | .smallcircle. | .smallcircle. | .smallcircle. | .smallcircle. | .smallcircle. | .smallcircle. |  |  |  |  |  |  |  |  |  |  |  | 
C[C@H](N)C(=O)N[C@@H](C)C(=O)Nc1ccc2c(c1)Oc1cc(NC(=O)[C@H](C)NC(=O)[C@H](C)N)ccc1C21OC(=O)c2ccccc21 [AA-TFA, (H-L-Ala--Ala)2 Rho 110 .2TFA] |  |  |  | .smallcircle. | .smallcircle. | .smallcircle. |  |  |  |  |  |  |  |  |  |  |  |  |  |  | 
